Tested on: BT53 orthotopic xenograft
Experiment: Kaplan-Meier survival, orthotopic BT53 xenograft
Format: in vivo, mice
Details: BT53 xenografted mice, 100 mg/kg pacritinib, three weeks; p < 0.7237 log-rank
Protocol: For Kaplan-Meier survival studies, BTIC spheres from BT53 or BT147 were dissociated to a single-cell suspension. Mice were anaesthetized using 10 mg/kg ketamine/xylazine. Buprenorphine (0.05 mg/kg) was administered once pre-operatively and once post-operatively to minimize animal suffering. 5 x 10^4 cells were stereotactically implanted into the right striata of 8- to 10-week-old female severe combined immunodeficient (SCID) mice, as previously described and approved by the University of Calgary Health Sciences Animal Care Committee, accredited by CCAC. Mice were randomized to vehicle or treatment cohorts, with a minimum of 8 mice per group, one week after cell implantation. For BT147, vehicle (Ora-Plus; Galenova), pacritinib (100 mg/kg), TMZ (30 mg/kg), or a combination of pacritinib (100 mg/kg) and TMZ (30 mg/kg), were administered via oral gavage. Animals completed a five-week regimen of three weekly treatments for a total of 15 treatments. For BT53, 100 mg/kg of pacritinib was administered twice per day alone or in combination with 50 mg/kg TMZ once per day, for one week via oral gavage. Following this, mice received 100 mg/kg pacritinib twice per day in combination with 10 mg/kg TMZ once per day for two weeks. […] The body weights were closely monitored throughout the course of the experiment. […]

C1=C/COCc2cc(ccc2OCCN2CCCC2)Nc2nccc(n2)-c2cccc(c2)COC/1 [pacritinib]
survival advantage, single agent: failed to provide a survival advantage
